In US12428465B2, “Therapeutic peptides and methods for treating type 2 diabetes” (OP-T LLC, priority 2018, dated 2025):

Legend:
NOD mice [1] = test: Development of diabetes in NOD mice treated with CD154 peptides; assay type: in vivo, mouse; settings: 25 ug (1 mg/kg) tail vein weekly from 6 weeks of age
Experimental: (§1) Peptides were designed based on the amino acid sequence of mouse CD154 protein (SEQ ID NO:1) in the SwissPro database. […] Weekly after the initial injection, another 25 ug of peptide (or 100 ul of saline in the case of the Control mice) was injected into the tail vein. At 10 weeks of age, mice were monitored for diabetes, as indicated by a blood glucose level greater than 250 mg/dL for three consecutive days. During this time, blood was also taken from the tail vein, or by sub-mandibular venal puncture, and the level of CD4+ and CD8+ cells determined by flow cytometry using antibodies for CD4 protein and CD8 protein.

human B cells = settings: cited from earlier work
NOD mice [2] = test: CD4/CD8 ratio in blood of treated NOD mice by flow cytometry; assay type: in vivo, mouse; settings: 25 ug (1 mg/kg) tail vein weekly
Experimental: as §1

NOD mice [3] = test: Reversal of hyperglycemia in newly diabetic NOD mice; assay type: in vivo, mouse
Experimental: Six mice from Example 1 that were not treated were allowed to subsequently develop diabetes. These mice were injected intravenously with 100 ug of the 15-mer peptide. These mice were then given weekly injections of the 15-mer peptide into their tail veins, and their blood glucose levels monitored twice-weekly. The 15-mer peptide was administered for a total of ten weeks, after which the treatment was stopped.
(§2) At the onset of diabetes, six NOD mice were injected with […] of the 15-mer peptide, resulting in the reversal of hyperglycemia in 80% of the recipients. Six weeks after reversal of hyperglycemia, mice were sacrificed, and the pancreas removed for analysis. The pancreas was fixed, sectioned and then stained using an aldehyde/fuschsin stain that allows detection of insulin granules. Granulation of the tissue was scored as follows: 4=completely granulated; 3=75% of islet granulated; 2=50% of islet granulated, and peri-insulitis; 1=25% of islet granulated; 0=no insulin granules detected.

CD40+ T-cells = test: Binding of FITC-labeled 15-mer peptide to Th40 cells, flow cytometry; set-up: species or system mouse; settings: lymphocytes of 9 week old NOD mice
Experimental: Total lymphocytes were isolated from 9 week old NOD mice. The lymphocytes were incubated with anti-CD4, anti-CD8, anti-CD40 and an FITC-labeled 15-mer peptide, and then analyzed by flow cytometry. Cells were gated for CD4 (both CD4hi and CD4lo populations were included) and CD40 versus the 15-mer peptide.

B cells = test: Binding of FITC-labeled 15-mer peptide to B cells, flow cytometry; set-up: species or system mouse; settings: spleen B cells of NOD mice, 90% CD40 positive
Experimental: B cells were isolated from the spleens of NOD mice. Sorted MHC-II+ cells were purified from total lymphocytes. Cells were stained with FITC-labeled 15 mer peptide, anti-CD40, and B cell markers CD19 and CD21. MHC-II+ cells were gated for CD19+ and CD21+ and then 15-mer peptide versus CD40 antibody was measured.

blood cells = test: Binding of biotin-conjugated 15-mer peptide to whole blood cells, HRP-avidin absorbance at 405 nm; set-up: species or system human; settings: 1 ml whole blood
Experimental: 1 ml of whole blood was obtained from each individual and incubated with biotin-conjugated, 15-mer peptide. The cells were then exposed to horseradish peroxidase (HRP)-avidin, washed and the absorbance at 405 nm determined using a spectrophotometer.

NOD mice [4] = test: Insulin granulation of the pancreas in NOD mice, aldehyde/fuschsin stain; assay type: in vivo, mouse; settings: six weeks after reversal of hyperglycemia; versus irrelevant peptide
Experimental: as §2

ApoE deficient mice = test: Atherosclerosis in ApoE deficient mice, lesser curvature of the aortic arch; assay type: in vivo, mouse; settings: 1 mg/kg IV three times a week from 9 weeks of age, normal chow
Experimental: ApoE deficient mice on a normal chow diet were selected to receive a dose of 1 mg/kg of the 15-mer peptide (SEQ ID NO: 7) by IV tail injection, three times a week over a period of […], beginning at 9 weeks of age and also utilized a control. At 25 weeks, the animals were euthanized, weighed, and then had blood, spleen, and pancreas removed for analysis. The subjects were then perfused through cardiac puncture with 4% paraformaldehyde. Aortic arches were dissected, dehydrated in sucrose gradient and then flash frozen.
FIG. 17 provides an example of the lesser curvature of the aortic arch, defined proximally from the aortic outflow (AO). Of the segments seen in the trichrome stain, an intimal distance of […] was measured distally. The aortic-arch wall area subtended by this 2.5 mm stretch of the intima was calculated for each section of all mice, with maximal area of the inner-aortic-arch wall of each mouse used to compute averages per group. The luminal surface (L), aortic arch (AO), and innominate artery (I) are labelled in this FIG. 17.
Plaque was subdivided based on morphology of early lesions (observable as fatty streaks containing macrophage derived foam cells with varying degrees of lipid accumulation) compared with more advanced fibroatheromas (containing varying degrees of lipid or necrotic core and fibrous caps). […]

ApoE-/- mice [5] = test: Existing atherosclerotic disease in ApoE-/- mice, plaque cap and core measurements; assay type: in vivo, mouse; settings: 1 mg/kg IV once a week for 4 weeks from 20 weeks of age
Experimental: In this study, six ApoE−/− mice received a normal chow diet from 0 to 20 weeks of age. At 20 weeks of age, three mice were randomly assigned to receive dose of 1 mg/kg of KGYY15 (15-mer-SEQ ID NO:7) by IV tail injection, once a week for a period of 4 weeks. Control mice received vehicle only. After 4 weeks of treatment, animals were euthanized then perfused through cardiac puncture with 4% paraformaldehyde. Aortic arches were dissected in surcrose gradient and flash frozen. Approximately fifty, 8 um longitudinal sections were obtained per mouse. Slides were treated with trichrome stain and analyzed using cellSens software for measurements. Total plaque was measured including 2.5 mm lesser curvature and innominate artery.

[6] = Clot study of whole human blood in the presence of peptide; settings: dosing levels similar to murine studies
Experimental: Whole human blood was administered the peptide in accordance with similar dosing levels to those used for murine studies.

ApoE-/- mice [7] = test: LDL cholesterol in ApoE-/- mice; assay type: in vivo, mouse; settings: 1 mg/kg IV once a week for 4 weeks
Experimental: In this study, six ApoE−/− mice received a normal chow diet from 0 to 20 weeks of age. At 20 weeks of age, three mice were randomly assigned to receive dose of 1 mg/kg of KGYY6 (6-mer-SEQ ID NO:29) by IV tail injection, once a week for a period of 4 weeks. Control mice received vehicle only.

ApoE-/- mice [8] = test: Atherosclerotic changes in high fat diet ApoE-/- mice (Sudan IV en-face, Paigen method, trichrome); assay type: in vivo, mouse
Experimental: ApoE−/− mice were fed a high fat diet for 16 weeks. Mice were randomly assigned to receive dose of 1 mg/kg of KGYY6 (6-mer-SEQ ID NO:29) by IV tail injection, once a week for a period of 4 weeks. Control mice received vehicle only. Atherosclerosis was investigated by several methods. […] FIG. 28A is an image of KGYY6 treated aortic en-face Sudan IV staining and FIG. 28B is an image of control (untreated) aortic en-face Sudan staining.
Further, measurement of plaque area and morphology was performed using the Paigen method. This method obtains sequential 5 μm aortic cross sections from the aortic root beginning at the valve leaflets into the ascending aorta. At 50 μm intervals, slides are stained after which the area of atherosclerotic lesion is measured. Individual plaque area measurements are plotted against the micrometer intervals and a curve is established, with the area under the curve (AUC) giving the total volume of plaque.

ApoE-/- mice [9] = test: Glucose tolerance testing and serum insulin in high fat diet ApoE-/- mice; assay type: in vivo, mouse
Text: One example of a disease that is particularly amenable to treatment using a peptide of the present developments may be type 2 diabetes. In type 2 diabetes, glucose tolerance is reduced, insulin sensitivity is decreased, and plasma insulin levels are increased. Consequently, control of inflammatory cells and cell signaling via CD40-CD154 interaction may be able to be used to control, modulate, reduce and/or reverse type 2 diabetes symptoms that are characterized as by glucose intolerance, insulin resistance, and increased plasma insulin levels. Several murine models of T2D and/or atherosclerosis have been developed. For initial studies, ApoE−/− mice were selected due to their ability to develop type 2 diabetes from a high fat diet. Glucose tolerance and insulin testing were performed on all of the mice. The mice were administered the 6-mer peptide (SEQ ID NO:29) at a rate of 1 mg/kg weekly via I.V, injection and monitored. […] Thus, one embodiment of the present developments is a method to prevent type 2 diabetes in an individual at risk for developing type 2 diabetes, the method comprising administering to the individual a peptide to selectively bind to a CD40 expressing cell. In such an embodiment, the peptide may be selected from SEQ ID NOS: 3-9 and 24-30.
ApoE−/− mice were fed a 60% high fat diet (research diet) for 1 week. A select population of mice were then injected with 6-mer peptide at a dose of 1 mg/kg and others were untreated and tracked as controls. Glucose tolerance testing (GTT) was performed by fasting 6 hours, followed by intraperitoneal injection of 1 g/kg body weight glucose in water. Both blood glucose and blood serum insulin were measured at 0, 15 minutes, 30 minutes, 60 minutes, and 2 hours.

GLUT4 = test: Western analysis of GLUT4 in adipose and muscle tissue of treated mice; assay type: in vivo, mouse; settings: treated versus untreated mice
Text: GLUT4 is responsible for glucose uptake in response to insulin and known to have reduced expression in type 2 diabetes.

Th40 cells = test: Cytokine production of splenic lymphocytes (Th40 cells) treated in vitro, flow cytometry; assay type: cell-based, mouse; settings: splenic lymphocytes of ApoE-/- and C57BL/6 mice, 24 hours in vitro, varying concentrations
Experimental: Spleens from ApoE mice and C57BL/6 mice were processed for lymphocytes. ApoE−/− and C57BL/6 mice were fed a 60% high fat diet (research diet) for 1 week. Splenic lymphocytes were treated with 6-mer in vitro for 24 hours. Cells were placed in media overnight in the presence of varying concentrations of 6-mer peptides. The following morning. Brefeldin A was administered for 4 hours. All cells were stained for CD3, CD4, CD40 (Th40 cells) and measured by use of flow cytometry for their production of IL2, INFγ, and IL17a.

[10] = high fat diet 16 weeks, 1 mg/kg IV once a week for 4 weeks
[11] = trichrome staining, Image Pro Plus analysis

VLQWAKKGYYTMK [13-mer peptides, 13-mer peptide derived from the CD154 protein]
development of diabetes (blood glucose greater than 250 mg/dL for three consecutive days) (NOD mice [1]): significant effects on the development of diabetes

Cc1ccc(C(=O)Nc2ccc(S(=O)(=O)O)c3cc(S(=O)(=O)O)cc(S(=O)(=O)O)c23)cc1NC(=O)c1cccc(NC(=O)Nc2cccc(C(=O)Nc3cc(C(=O)Nc4ccc(S(=O)(=O)O)c5cc(S(=O)(=O)O)cc(S(=O)(=O)O)c45)ccc3C)c2)c1 [suramin]
CD154-induced proliferation of human B cells (human B cells): prevented

VLQWAKKGYYTMKSN (VLQWAKKGYYTMKSK) [15-mer peptide, 15-mer peptide derived from the mouse CD154 protein]
development of diabetes (blood glucose greater than 250 mg/dL for three consecutive days) (NOD mice [1]): prevented the onset of diabetes
compromise of the immune system as determined by the CD4/CD8 ratio (NOD mice [2]): did not result in compromise of the immune system
reversal of hyperglycemia in already diabetic mice (NOD mice [3]; 100 ug IV then weekly injections for ten weeks): can reverse hyperglycemia
recipients with reversal of hyperglycemia (NOD mice [3]; six NOD mice injected with 100 ug/ml at the onset of diabetes): 80%
return of hyperglycemia after cessation of the treatment (NOD mice [3]; treatment stopped after ten weeks): ≤ 5 weeks
CD40+ T-cells that bind the peptide (CD40+ T-cells): 90%
B cells that bound the peptide (B cells): 8%
peptide binding activity of blood cells, type-I diabetes patients versus non-diabetic controls (blood cells): higher
insulin granules in the pancreas (NOD mice [4]): preserved insulin granules in the majority of the mice
total area of the 2.5 mm segment of the aortic-arch wall (ApoE deficient mice): substantially reduced
total number of plaque (early lesions and advanced plaque) (ApoE deficient mice): significantly decreased
average cap width (cap size) (ApoE-/- mice [5]): greater
average core width (core size/plaque size) (ApoE-/- mice [5]): decreased
cap to core ratio of advanced plaques (ApoE-/- mice [5]): reduced
number of individual early plaques and advanced plaques (ApoE-/- mice [5]): reduced
clotting of whole human blood [6]: does not modify or change the clotting

AKKGYY [KGYY6, 6-mer peptide from CD154]
reduction in LDL cholesterol values versus untreated mice (ApoE-/- mice [7]): > 50%
lesion areas, en-face Sudan IV stain (ApoE-/- mice [8]; [10]): significant reduction
plaque volume (area under the curve, Paigen method) (ApoE-/- mice [8]; [10]): reduction
plaque composition: collagen (ApoE-/- mice [8]; [11]): increased
plaque composition: smooth muscle content (ApoE-/- mice [8]; [11]): reduced
insulin sensitivity compared to controls (ApoE-/- mice [9]; 1 mg/kg): significantly improved
plasma insulin levels compared to controls (ApoE-/- mice [9]; 1 mg/kg): lowered
insulin resistance compared to controls (ApoE-/- mice [9]; 1 mg/kg weekly I.V.): improve
glucose tolerance compared to controls (ApoE-/- mice [9]; 1 mg/kg, GTT 1 g/kg glucose i.p. after 6 hours fasting): significantly increased
expression of GLUT4 in muscle tissue (GLUT4): increased expression
expression of GLUT4 in white adipose tissue (GLUT4): increase in expression
inflammatory cytokine production of IL2, INFγ, and IL17a (Th40 cells): affects
